Experimental data as given in patent publication US6660283B2, “Use of cinnamic acid, or of at least one of its derivatives in a cosmetic composition” (Societe L'Oreal S.A., priority 1997, dated 2003).

Tested on: reconstructed human epidermis
Test: Incorporation of 14C acetate into total lipids of reconstructed human epidermis (Skinethic)
Type: cell-based
Conditions: for percentage of stimulation (incorporation of 14C acetate, lipid synthesis): relative to untreated cells = 100
Description: The study is carried out by measuring the incorporation of carbon-14-labelled acetate in models of reconstructed human epidermis sold by the company Skinethic, in which the composition of total lipids is close to that of normal human epidermis.
The reconstructed human epidermis cultures are prepared according to the supplier's recommendations.
Cinnamic acid, at concentrations of 10^−5, 10^−6 and 10^−7 M, is placed in contact for 72 hours with reconstructed human epidermes after they have been cultured for 14 days under the conditions recommended by the supplier. The labelling with ^14C acetate (sodium [2-^14C]-acetate sold by Amersham, 59 mCi/mmol) is carried out 24 hours after placing the test product in contact with the culture, i.e. during the final 48 hours of culturing, at a rate of 0.5 μCi of ^14C acetate per culture.
At the end of culturing, after washing the epidermes with phosphate buffer (PBS), the epidermides are dissociated and the cells are lysed with 0.5M perchloric acid on ice. The lysates are then extracted with a methanol/chloroform mixture (2:1), centrifuged and the pellets obtained are extracted again under the same conditions as before. The lipids are separated out by addition of PBS and chloroform (Blight-Byer technique). The organic phase containing the lipids is taken off and the radioactive incorporated in this phase is determined by liquid scintillation. The organic phase is then dried under a stream of nitrogen. Thin layer plate chromatography on Merck K60 plates is carried out using, as eluent, a chloroform/methanol/water mixture (50/18/2.6) to separate the phospholipids, or a hexane/ether/acetic acid mixture (15/5.6/0.19) to separate the neutral lipids.
The plates are then autoradiographed for 24 hours and the chromatograms are analysed by densitometry using the One-D-Scan software from the company Scanalytics.
The results are evaluated relative to a control consisting of cells which have not been treated with cinnamic acid.
A positive control (10^−4 M trifluoperazine), which is known to stimulate lipid synthesis, and a negative control (10^−6 M retinoic acid), which is known to inhibit lipid synthesis, are introduced into the test as reference.

O=C(O)C=Cc1ccccc1 [cinnamic acid]
percentage of stimulation (incorporation of 14C acetate, lipid synthesis) (10^−5 M, 72 hours contact): 113%
percentage of stimulation (incorporation of 14C acetate, lipid synthesis) (10^−6 M, 72 hours contact): 109%
percentage of stimulation (incorporation of 14C acetate, lipid synthesis) (10^−7 M, 72 hours contact): 124%
effect on incorporation of 14C acetate (lipid synthesis), in words (reconstructed human epidermis, 10^−5 to 10^−7 M): significantly stimulates

CC1=C(/C=C/C(C)=C/C=C/C(C)=C/C(=O)O)C(C)(C)CCC1 [retinoic acid, reference compound]
percentage of stimulation (incorporation of 14C acetate, lipid synthesis) (10^−6 M, 72 hours contact): 82%

CN1CCN(CCCN2c3ccccc3Sc3ccc(C(F)(F)F)cc32)CC1 [trifluoroperazine, trifluoperazine, reference compound]
percentage of stimulation (incorporation of 14C acetate, lipid synthesis) (10^−4 M): 122%
